Experimental findings from PubChem BioAssay (NCI) are described below.

“And” between values parts separate entries of the source, which are not always exact repeats. Equal values may be shown once.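 Values below derive from 48-hour exposures of cells grown in 96-well plates, with endpoints linearly interpolated between the two concentrations bracketing the appropriate inhibition level. GI50: concentration for 50% inhibition of growth. TGI: total growth inhibition.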 Where only a bound is given, the exact number is not on record here.

Holding throughout (experiment): NCI-60 cell line screen, 48 h
In test [1] the test system is RXF 393 renal.
Test [2] relates to HT29 colon.
The subject of test [3] is LOX IMVI melanoma.
Test [4] has as its system NCI-H23 lung.
The subject of test [5] is HS 578T breast.
Test [6] relates to NCI-H226 lung.
Test [7] deals with MOLT-4 leukemia.
In test [8] the test system is MDA-MB-435.
Test [9] relates to OVCAR-5 ovarian.
The subject of test [10] is SK-MEL-28 melanoma.

For `COc1ccc(NC(=O)c2ccc(NC3=C(Cl)C(=O)N(Cc4ccccc4)C3=O)cc2)c(OC)c1`, the GI50 was 50.2 µM in test [1]; 41.5 µM in test [2]; 30.1 µM in test [3]; 14.3 µM in [4]; above 100 µM in test [5]; 43.9 µM in [6]. The GI50 is 9.94 µM in test [7], 16.7 µM in [8], 49.3 µM in test [9] and 83.3 µM in test [10]. For the same molecule, the TGI in test [1] was above 100 µM; in test [2] it was above 100 µM; in test [3], above 100 µM; in test [4] it was 29.2 µM; in [5], above 100 µM; in [6], above 100 µM. The TGI in test [7] is 36.2 µM; in [8] it was 48.9 µM; in [9], above 100 µM; in [10], above 100 µM.
Regarding `COc1cc(C2CC(=O)Nc3c2c(C)nn3-c2nc3ccccc3[nH]2)cc(OC)c1O` (stereo unspecified), the GI50 in test [1] is 2.17 µM; in test [2], 3.66 µM; in test [3], 3.08 µM; in test [4], 3.15 µM; in [5] it was 2.05 µM; in [6], 2.46 µM. The GI50 is 0.0427 µM in [7], 1.98 µM in test [8], 11.6 µM in test [9] and 2.4 µM in test [10]. Moreover, the TGI in [1] came out at 5.14 µM; in test [2], 16.6 µM; in test [3], 10.9 µM; in test [4], 11.2 µM; in [5], 7.7 µM; in test [6], 7.16 µM. In addition, the TGI in [7] was found to be 0.242 µM; in test [8], 4.42 µM; in [9] it was 30.4 µM; in test [10] it was 6.58 µM.
Turning to `COc1ccc(OC)c(/C=C/c2ccnc3ccccc23)c1`, the TGI in test [1] amounted to 2.72 µM; in [2], 2.35 µM; in [3] it was 14.4 µM; in test [4], 5.72 µM; in test [5], 5.72 µM; in [6] it was 4.74 µM. For the same molecule, the TGI in test [7] stood at 16.2 µM; in test [8], 0.331 µM; in [9], 16 µM; in test [10], 20.5 µM.
On to `COC(=O)[C@@H](C)C[C@H](Cc1ccccc1)NC(=O)c1csc([C@@H](C[C@H](C(C)C)N(C)C(=O)[C@@H](NC(=O)[C@H]2CCCN2C)C2CC2)OC(C)=O)n1`, for which the GI50 was 0.0025 µM in [1]; 0.000503 µM and 0.0025 µM in test [2]; 0.00477 µM and 0.0025 µM in test [3]; 0.00365 µM and 0.0025 µM in test [4]; 0.00186 µM in test [5]; 0.00316 µM and 0.0025 µM in [7]. Moreover, the GI50 in [8] was below 0.0025 µM; in [10], 0.0324 µM. Besides, the TGI in test [1], in test [2], in test [3], in test [4], in test [6] and in [7] was above 25 µM throughout. Further, the TGI in test [8] was 0.00049 µM and < 0.0025 µM; in [9], above 25 µM.
Regarding `C=C1C(=O)O[C@H]2[C@H]1CC/C(CNC(=O)/C=C/c1ccccc1F)=C\CC[C@@]1(C)O[C@@H]21`, the GI50 was 1.24 µM in [1]; 1.22 µM in test [2]; 1.19 µM in test [3]; 1.88 µM in test [4]; 2.42 µM in test [5]; 2.42 µM in test [6]. In addition, the GI50 in [7] is 1.55 µM; in test [8], 1.5 µM; in [9], 1.9 µM; in test [10], 1.95 µM. Besides, the TGI is 2.7 µM in [1]; 3.08 µM in [2]; 2.56 µM in test [3]; 4.42 µM in [4]; 16.9 µM in test [5]; 6.94 µM in test [6]. The TGI in test [7] came out at 4.86 µM; in [8], 6.34 µM; in test [9], 5.15 µM; in test [10] it was 6.19 µM.
As to `CCC1(c2ccc(N)cc2)CCC(=O)NC1=O` (stereo unspecified), the TGI in test [1] is above 3970 µM; in test [2] it was above 3750 µM; in test [3], above 3970 µM; in [4], above 5000 µM; in test [5], above 5000 µM; in test [6], above 4820 µM. The TGI in test [7] was above 3750 µM; in test [8] it was above 5000 µM; in [9], above 5000 µM; in test [10] it was above 5000 µM.
`[Cu+2].[NH-]C(CC(=O)O)C(=O)O.[NH-]C(CC(=O)O)C(=O)O` (stereo unspecified): the GI50 in test [1], in [2], in test [3], in test [4], in [5] and in test [6] was above 100 µM each time. For the same molecule, the GI50 in [7] is above 100 µM; in test [8] it was 40.2 µM; in test [9] it was above 100 µM; in [10], above 100 µM. For the same molecule, the TGI in test [1], in test [2], in test [3], in test [4], in [5] and in test [6] was above 100 µM throughout. Moreover, the TGI in test [7], in test [8], in [9] and in [10] was above 100 µM in each case.
Take `Cc1ccc(OCCOCCOCCOCCOCCOc2ccc(C)n(O)c2=S)c(=S)n1O`: the GI50 in test [1] is 0.327 µM; in [2], 0.0585 µM; in test [3] it was 0.054 µM; in test [4], 0.08 µM; in [5] it was 1.67 µM; in test [6] it was 0.0576 µM. The GI50 is 0.0422 µM in test [7], 0.186 µM in test [8], 0.0634 µM in [9] and 0.23 µM in [10]. Also, the TGI in [1] is 17.1 µM; in [2], above 100 µM; in test [3] it was 21.8 µM; in [4] it was above 100 µM; in test [5], 74.6 µM; in [6] it was 14.7 µM. For the same molecule, the TGI in test [7] is above 100 µM; in [8], 52.6 µM; in test [9], above 100 µM; in [10], above 48.7 µM.
